The target in experiment [1] is T1, potassium ion channel hERG (Homo sapiens, UniProt Q12809).
T1 construct: expressed in transfected cells; host or cells: Chinese hamster ovary K1 (CHO)
Nature of the experiment: Assay 5 hERG assay (patch clamp, CHO cells over-expressing hERG). Conditions: SyncroPatch 384PE, room temperature, geometric mean, read-out: Assay 5 (hERG Hu CHO if EPh CR-Syncro) GMean IC50. Type of experiment: cell-based. Summed up: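 hERG currents recorded by automated patch clamp at room temperature in CHO-K1 cells, 6-point cumulative concentrations. SyncroPatch runs used KF-based internal (pH 7.2) and NMDG-containing external solution (pH 7.4), 0.33% DMSO; QPatchII runs used 2% or 0.4% DMSO. Only wells meeting seal-resistance and current-size criteria kept.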

Experiment [2] deals with T2, PCSK9 (Homo sapiens, UniProt Q8NBP7, G670E/V474I). Nature of the experiment: biochemical.
T2 sequence (Q8NBP7 with tags, fused parts or gaps V474I/G670E): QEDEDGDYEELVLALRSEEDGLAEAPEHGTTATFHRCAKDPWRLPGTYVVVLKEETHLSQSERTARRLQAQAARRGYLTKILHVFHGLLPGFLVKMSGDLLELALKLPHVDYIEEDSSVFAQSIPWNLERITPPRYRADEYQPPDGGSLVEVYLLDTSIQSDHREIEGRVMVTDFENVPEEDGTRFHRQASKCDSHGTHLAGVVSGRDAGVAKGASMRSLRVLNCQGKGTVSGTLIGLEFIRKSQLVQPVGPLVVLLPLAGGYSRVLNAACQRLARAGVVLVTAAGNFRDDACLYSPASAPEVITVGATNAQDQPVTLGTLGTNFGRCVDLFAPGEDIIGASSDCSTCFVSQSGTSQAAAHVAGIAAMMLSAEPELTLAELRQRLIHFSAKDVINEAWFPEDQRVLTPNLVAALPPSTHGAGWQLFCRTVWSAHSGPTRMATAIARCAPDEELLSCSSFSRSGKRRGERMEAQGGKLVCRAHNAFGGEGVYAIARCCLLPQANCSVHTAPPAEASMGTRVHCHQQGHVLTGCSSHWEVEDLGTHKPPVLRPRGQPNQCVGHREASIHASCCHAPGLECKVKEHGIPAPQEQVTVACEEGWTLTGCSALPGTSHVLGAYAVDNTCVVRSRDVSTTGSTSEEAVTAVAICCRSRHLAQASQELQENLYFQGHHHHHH
The target of experiment [3] is GSK3β (Glycogen synthase kinase-3 beta) (Homo sapiens, UniProt P49841). Nature of the experiment: Assay 6 GSK3β assay (ThermoFisher Z-Lyte FRET). Type of experiment: biochemical. Conditions: ATP Conc: 10 μM, geometric mean; read-out: Assay 6 (GSK3β FRET-Z-Lyte Cr) GMean IC50. Summed up:
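Z-Lyte FRET: 0.22-0.92 ng kinase with 2 μM Ser/Thr 09 peptide in HEPES pH 7.5, MgCl2, EGTA, 60 min at room temperature, then 60 min development. Compounds in 1% DMSO, 10-point 3-fold series from 10 μM; sigmoidal dose-response fit.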

Experiment [4] has as its target T2, PCSK9. Nature of the experiment: Assay 3 PCSK9 LDL-C uptake assay in HepG2 cells. Type of experiment: cell-based. Also on record: TEV site (C); His6 (C); host or cells: added to HepG2 (ATCC #HB-8065). Conditions: 125 nM PCSK9, pHrodo Red-LDL, read-out: Assay 3 LDL uptake potency. Summed up: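 HepG2 cells were plated for 24 h, then exposed for 24 h at 37 °C to compounds (half-log series, 10 μM top) with 125 nM exogenous PCSK9. pHrodo Red-LDL ([…]) uptake was then imaged by fluorescence at 4 h and 24 h. Signal was normalized as % effect between DMSO and 100 nM evolocumab, with a four-parameter logistic fit.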

IC50 and EC50 data for 19 compounds are collected here from patent US20240228469A1, “PCSK9 INHIBITORS AND METHODS OF USE THEREOF” (AstraZeneca AB, priority 2022, published 2024).

Chain of GSK3β (Glycogen synthase kinase-3 beta) (P49841 whole entry): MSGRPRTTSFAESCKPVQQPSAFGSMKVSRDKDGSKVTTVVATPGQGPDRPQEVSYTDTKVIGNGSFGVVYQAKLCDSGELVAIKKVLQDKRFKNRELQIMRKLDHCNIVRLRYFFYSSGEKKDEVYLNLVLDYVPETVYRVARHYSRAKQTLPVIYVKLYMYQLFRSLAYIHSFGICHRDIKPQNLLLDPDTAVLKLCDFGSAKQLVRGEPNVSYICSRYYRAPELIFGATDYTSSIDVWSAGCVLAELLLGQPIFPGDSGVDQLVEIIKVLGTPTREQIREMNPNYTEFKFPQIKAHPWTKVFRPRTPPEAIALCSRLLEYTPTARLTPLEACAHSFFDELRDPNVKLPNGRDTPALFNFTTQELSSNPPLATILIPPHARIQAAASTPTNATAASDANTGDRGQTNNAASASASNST
T1 sequence (Q12809 whole entry): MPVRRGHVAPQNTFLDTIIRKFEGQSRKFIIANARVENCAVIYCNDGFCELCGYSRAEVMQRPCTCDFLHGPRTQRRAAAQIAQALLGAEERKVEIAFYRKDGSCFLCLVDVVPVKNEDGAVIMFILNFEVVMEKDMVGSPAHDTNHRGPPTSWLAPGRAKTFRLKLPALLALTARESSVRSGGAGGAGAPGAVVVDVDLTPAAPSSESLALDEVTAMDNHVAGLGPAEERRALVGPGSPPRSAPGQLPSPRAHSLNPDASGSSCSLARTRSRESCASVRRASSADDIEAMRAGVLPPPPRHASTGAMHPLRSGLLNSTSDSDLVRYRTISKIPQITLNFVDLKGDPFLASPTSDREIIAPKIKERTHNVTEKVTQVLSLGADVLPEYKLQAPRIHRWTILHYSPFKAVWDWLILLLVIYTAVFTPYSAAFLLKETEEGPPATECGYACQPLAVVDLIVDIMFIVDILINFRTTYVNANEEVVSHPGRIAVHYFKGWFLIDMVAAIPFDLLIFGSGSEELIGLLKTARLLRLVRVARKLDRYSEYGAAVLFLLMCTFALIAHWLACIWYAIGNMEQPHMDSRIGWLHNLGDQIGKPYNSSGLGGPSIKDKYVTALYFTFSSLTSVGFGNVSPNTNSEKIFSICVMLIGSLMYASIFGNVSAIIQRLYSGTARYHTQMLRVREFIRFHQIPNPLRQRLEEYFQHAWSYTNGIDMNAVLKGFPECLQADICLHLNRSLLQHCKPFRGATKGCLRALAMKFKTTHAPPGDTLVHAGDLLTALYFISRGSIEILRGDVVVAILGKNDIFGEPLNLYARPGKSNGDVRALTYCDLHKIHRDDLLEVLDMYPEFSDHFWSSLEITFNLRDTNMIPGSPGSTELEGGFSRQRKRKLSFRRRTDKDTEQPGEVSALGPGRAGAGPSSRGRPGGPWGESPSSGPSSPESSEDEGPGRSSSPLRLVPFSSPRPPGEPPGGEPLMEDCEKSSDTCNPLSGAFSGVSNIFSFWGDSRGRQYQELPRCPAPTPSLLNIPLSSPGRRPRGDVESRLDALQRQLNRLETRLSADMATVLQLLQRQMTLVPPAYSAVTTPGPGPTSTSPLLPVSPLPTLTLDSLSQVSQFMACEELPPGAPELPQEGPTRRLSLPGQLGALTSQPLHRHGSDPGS

As to `Cc1cnc(N[C@H]2CC[C@H](Nc3ccc(-n4c(=O)n(C)c5cccnc54)cn3)C2)nn1` [Example 212, 1-Methyl-3-(6-(((1S,3S)-3-((6-methyl-1,2,4-triazin-3-yl)amino)cyclopentyl)amino)pyridin-3-yl)-1,3-dihydro-2H-imidazo[4,5-b]pyridin-2-one], the 50% inhibitory concentration (IC50) in experiment [1] is greater than 40.1 µM; in experiment [2], 1.8 nM; in experiment [3] it was greater than 10 µM. Besides, the EC50 in experiment [4] came out at 100 nM.

Take `COc1ccc(=O)n(-c2ccc(N[C@H]3CC[C@H](Nc4ncc(C5CC5)nn4)C3)nc2)c1` [Example 65, 6′-(((1S,3S)-3-((6-Cyclopropyl-1,2,4-triazin-3-yl)amino)cyclopentyl)amino)-5-methoxy-2H-[1,3′-bipyridin]-2-one]: the IC50 in experiment [1] was 38.8 µM; in experiment [2], 11.8 nM; in experiment [3], 0.014 µM. For the same compound, in experiment [4], the EC50 stood at 500 nM.

Take `CN1CC(=O)N(c2ccc(N[C@H]3CC[C@H](Nc4ncc(C5CC5)nn4)C3)nc2)C1=O` [Example 57, 3-(6-(((1S,3S)-3-((6-Cyclopropyl-1,2,4-triazin-3-yl)amino)cyclopentyl)amino)pyridin-3-yl)-1-methylimidazolidine-2,4-dione]: the concentration for half-maximal inhibition (IC50) was greater than 40 µM in experiment [1], 11 nM in experiment [2] and greater than 10 µM in experiment [3]. Also, the EC50 in experiment [4] was found to be 500 nM.

In the case of `Cc1cnc(N[C@H]2CC[C@H](Nc3ccc(-n4nccc(Cl)c4=O)cn3)C2)nn1` [Example 221, 4-Chloro-2-(6-(((1S,3S)-3-((6-methyl-1,2,4-triazin-3-yl)amino)cyclopentyl)amino)pyridin-3-yl)pyridazin-3(2H)-one], the IC50 in experiment [1] is greater than 40.1 µM; in experiment [2], 1.6 nM; in experiment [3], greater than 10 µM. For the same compound, the EC50 in experiment [4] was 300 nM.

As to `O=C(NC1COC1)c1cnc(N[C@H]2CC[C@H](Nc3ccc(-n4ccccc4=O)cn3)C2)nn1` [Example 70, N-(Oxetan-3-yl)-3-(((1S,3S)-3-((2-oxo-2H-[1,3′-bipyridin]-6′-yl)amino)cyclopentyl)amino)-1,2,4-triazine-6-carboxamide], the half-inhibitory concentration (IC50) in experiment [1] was greater than 40 µM; in experiment [2], 19 nM; in experiment [3], greater than 10 µM. In addition, the EC50 in experiment [4] amounted to 200 nM.

With `O=c1cccnn1-c1ccc(N[C@H]2CC[C@H](Nc3ncc(C4CC4)nn3)C2)nc1` [Example 118], the figures for the IC50 in experiment [1], in experiment [2] and in experiment [3] were greater than 40 µM, 7.4 nM and greater than 10 µM, respectively. Moreover, the EC50 in experiment [4] was 500 nM.

Regarding `COc1cccn(-c2ccc(N[C@H]3CC[C@H](Nc4ncc(C)nn4)C3)nc2)c1=O` [Example 132, 3-Methoxy-6′-(((1S,3S)-3-((6-methyl-1,2,4-triazin-3-yl)amino)cyclopentyl)amino)-2H-[1,3′-bipyridin]-2-one], the IC50 in experiment [1] is greater than 40 µM; in experiment [2], 2.3 nM; in experiment [3], 2.06 µM. In addition, the EC50 in experiment [4] was 100 nM.

Turning to `Cc1cnc(N[C@H]2CC[C@H](Nc3ccc(-n4cc(Cl)ccc4=O)cn3)C2)nn1` [Example 134, 5-Chloro-6′-(((1S,3S)-3-((6-methyl-1,2,4-triazin-3-yl)amino)cyclopentyl)amino)-2H-[1,3′-bipyridin]-2-one], the values for the IC50 in experiment [1], in experiment [2] and in experiment [3] were greater than 40 µM, 8.4 nM and 0.439 µM, respectively. Moreover, the EC50 in experiment [4] is 500 nM.

As to `Cc1cccn(-c2ccc(N[C@H]3CC[C@H](Nc4ncc(C5CC5)nn4)C3)nc2)c1=O` [Example 66, 6′-(((1S,3S)-3-((6-Cyclopropyl-1,2,4-triazin-3-yl)amino)cyclopentyl)amino)-3-methyl-2H-[1,3′-bipyridin]-2-one], the concentration for half-maximal inhibition (IC50) is greater than 40 µM in experiment [1], 1.7 nM in experiment [2] and greater than 10 µM in experiment [3]. Moreover, the EC50 in experiment [4] came to 100 nM.

`O=c1ccc(Cl)cn1-c1ccc(N[C@H]2CC[C@H](Nc3ncc(C4CC4)nn3)C2)nc1` [Example 112, 5-Chloro-6′-(((1S,3S)-3-((6-cyclopropyl-1,2,4-triazin-3-yl)amino)cyclopentyl)amino)-2H-[1,3′-bipyridin]-2-one]: the IC50 was greater than 40.1 µM in experiment [1], 4.7 nM in experiment [2] and 6.4 µM in experiment [3]. Also, the EC50 in experiment [4] was 200 nM.

For the compound `O=c1ccncn1-c1ccc(N[C@H]2CC[C@H](Nc3ncc(C4CC4)nn3)C2)nc1` [Example 114, 3-(6-(((1S,3S)-3-((6-Cyclopropyl-1,2,4-triazin-3-yl)amino)cyclopentyl)amino)pyridin-3-yl)pyrimidin-4(3H)-one], the IC50 in experiment [1] was 18.6 µM; in experiment [2], 7.6 nM; in experiment [3] it was greater than 10 µM. In experiment [4], the EC50 came out at 300 nM.

In the case of `Cn1c(=O)n(-c2ccc(N[C@H]3CC[C@H](Nc4ncc(C5CC5)nn4)C3)nc2)c2ccc(C#N)cc21` [Example 117, 1-(6-(((1S,3S)-3-((6-Cyclopropyl-1,2,4-triazin-3-yl)amino)cyclopentyl)amino)pyridin-3-yl)-3-methyl-2-oxo-2,3-dihydro-1H-benzo[d]imidazole-5-carbonitrile], the IC50 in experiment [1] was 6.3 µM; in experiment [2], 1 nM; in experiment [3], greater than 10 µM. For the same compound, the EC50 in experiment [4] is 300 nM.

`N#Cc1ccc(=O)n(-c2ccc(N[C@H]3CC[C@H](Nc4ncc(C5CC5)nn4)C3)nc2)c1` [Example 56, 6′-(((1S,3S)-3-((6-Cyclopropyl-1,2,4-triazin-3-yl)amino)cyclopentyl)amino)-2-oxo-2H-[1,3′-bipyridine]-5-carbonitrile]: the IC50 is 34.9 µM in experiment [1], 9 nM in experiment [2] and greater than 10 µM in experiment [3]. In experiment [4], the EC50 was found to be 300 nM.

Turning to `CN1C(=O)CN(c2ccc(N[C@H]3CC[C@H](Nc4ncc(C5CC5)nn4)C3)nc2)C1=O` [Example 62, 1-(6-(((1S,3S)-3-((6-Cyclopropyl-1,2,4-triazin-3-yl)amino)cyclopentyl)amino)pyridin-3-yl)-3-methylimidazolidine-2,4-dione], the values for the IC50 in experiment [1], in experiment [2] and in experiment [3] were 36.3 µM, 6.5 nM and greater than 10 µM, respectively. Moreover, the EC50 in experiment [4] was 300 nM.

In the case of `Cc1cnc(N[C@H]2CC[C@H](Nc3ccc(-n4cc(C#N)ccc4=O)cn3)C2)nn1` [Example 128, 6′-(((1S,3S)-3-((6-Methyl-1,2,4-triazin-3-yl)amino)cyclopentyl)amino)-2-oxo-2H-[1,3′-bipyridine]-5-carbonitrile], the results for the IC50 in experiment [1], in experiment [2] and in experiment [3] were greater than 40 µM, 20 nM and greater than 10 µM, respectively. The EC50 in experiment [4] came to 800 nM.

Regarding `C#CCNC(=O)c1cnc(N[C@H]2CC[C@H](Nc3ccc(-n4ccccc4=O)cn3)C2)nn1` [Example 69, 3-(((1S,3S)-3-((2-Oxo-2H-[1,3′-bipyridin]-6′-yl)amino)cyclopentyl)amino)-N-(prop-2-yn-1-yl)-1,2,4-triazine-6-carboxamide], the concentration for half-maximal inhibition (IC50) in experiment [1] was greater than 40 µM; in experiment [2], 20 nM; in experiment [3] it was greater than 10 µM. For the same compound, the EC50 in experiment [4] is 200 nM.

With `O=c1c(C(F)(F)F)cccn1-c1ccc(N[C@H]2CC[C@H](Nc3ncc(C4CC4)nn3)C2)nc1` [Example 51, 6′-(((1S,3S)-3-((6-Cyclopropyl-1,2,4-triazin-3-yl)amino)cyclopentyl)amino)-3-(trifluoromethyl)-2H-[1,3′-bipyridin]-2-one], the figures for the half-inhibitory concentration (IC50) in experiment [1], in experiment [2] and in experiment [3] were 10.8 µM, 1.8 nM and greater than 10 µM, respectively. Moreover, the EC50 in experiment [4] came out at 100 nM.

In the case of `Cc1cnc(N[C@H]2CC[C@H](Nc3ccc(-n4c(=O)n(C)c5ccc(C#N)cc54)cn3)C2)nn1` [Example 210, 1-Methyl-3-(6-(((1S,3S)-3-((6-methyl-1,2,4-triazin-3-yl)amino)cyclopentyl)amino)pyridin-3-yl)-2-oxo-2,3-dihydro-1H-benzo[d]imidazole-5-carbonitrile], the 50% inhibitory concentration (IC50) in experiment [1] is greater than 40.1 µM; in experiment [2], 0.9 nM; in experiment [3], greater than 10 µM. In addition, in experiment [4], the EC50 is 100 nM.

Regarding `O=c1ccccn1-c1ccc(N[C@H]2CC[C@H](Nc3ncc(C4CC4)nn3)C2)nc1` [Example 50, 6′-(((1S,3S)-3-((6-Cyclopropyl-1,2,4-triazin-3-yl)amino)cyclopentyl)amino)-2H-[1,3′-bipyridin]-2-one], the IC50 in experiment [1] is greater than 40 µM; in experiment [2] it was 8 nM; in experiment [3] it was greater than 10 µM. Moreover, in experiment [4], the EC50 is 300 nM.
